Measured values taken from patent US20220252625A1, “TREATMENT AND DIAGNOSIS OF CHRONIC INFLAMMATORY CONDITIONS IN THE LOWER URINARY TRACT” (SELECTIMMUNE PHARMA AB, priority 2019, published 2022).
“And” between values parts separate entries of the source, which are not always exact repeats. Equal values may be shown once. “Also recorded” adds a separate entry of the source. Read-outs that look alike come from different tables or passages of the source.

Tests used:
[1] = system: patients with bladder pain syndrome (BPS); assay: Open label trial, ten BPS patients: symptoms, quality of life, side effects; assay type: in vivo, human
Experimental: The inventors have tested the hypothesis that IL-1RA treatment may be useful to alleviate bladder pain. Ten patients with BPS were enrolled in an investigator-driven open trial. The patients received daily Kineret treatment (100 mg) for seven days. Treatment was then transiently interrupted and if the symptoms returned, treatment was resumed.
(§1) a) Schematic of the study protocol. Ten patients with a long history of BPS (ref EAU guidelines) were enrolled after informed consent and instructed to fill in a questionnaire detailing frequency of urination, pain, frequency of pain medication and quality of life. Laboratory samples were obtained at diagnosis, after the initiation of Kineret treatment (n=10), during the “treatment break” and after continuation of Kineret treatment (n=9). Neuropeptides involved in the pain response (Substance P) were quantified in urine. Peripheral blood RNA was subjected to genome wide transcriptomic analysis to define molecular effects of Kineret treatment.
In this study, we addressed if IL-1RA treatment might be efficient in patients with chronic bladder pain. We conducted an explorative, open label trial in patients with BPS (Table 5). Patients received daily subcutaneous injections of Anakinra (100 mg) for seven days and the therapeutic effects were recorded. To address potential placebo effects, treatment was transiently interrupted for a maximum of 14 days and when the symptoms returned, treatment was resumed and continued with individual treatment regimes. […] In the remaining patients, bladder pathology was not detected. During the study, patients were instructed to keep a symptom journal recording the sensation of pain and the frequency of micturition.

[2] = system: patients with chronic cystitis and CPPS; assay: Open Anakinra trial, symptom score; assay type: in vivo, human
Experimental: The applicants have performed an open Anakinra trial in patients with chronic inflammatory conditions in the lower urinary tract, specifically chronic cystitis and CPPS. This structured observational study to investigate the effect of treatment with Anakinra in patients suffering from chronic cystitis and CPPS.
Inclusion visit: Patient is informed about the study and is included after signed informed consent is obtained. A structured interview and clinical investigation is performed. The disease severity is evaluated using a symptom score. Follow-up visits are booked.
A structured interview and clinical investigation is performed. Symptom severity is recorded.
Treatment with Anakinra is started and continued for seven days (until next visit).
Evaluation of effect after one week of treatment with Anakinra. A structured interview and clinical investigation are performed. Symptom severity is evaluated. Patients with no treatment effect are excluded from further treatment.
Follow-up after treatment pause. A structured interview and clinical investigation is performed. Symptom severity is evaluated. If the patient has relapse, Anakinra treatment is resumed.
Follow-up with evaluation of effect after three weeks of treatment with Anakinra. A structured interview and clinical investigation is performed. Symptom severity is evaluated.
Final visit after pause of treatment with Anakinra. A structured interview and clinical investigation is performed. Symptom severity is evaluated.
During patient visits, structured interviews evaluating symptoms (including consumption of medications) and clinical investigations are performed. Throughout the study period, the patients make daily symptom scores regarding pain, urination, sense of urgency and quality of life following a structured formula.

[3] = system: patients with CPPS (Bladder, Urethral and Prostate Pain phenotype); assay: Clinical study, nine CPPS patients: symptom scoring (frequency, pain, QoL), side effects; assay type: in vivo, human; conditions: for clinical response in the detailed patient description, words: one patient per block (Patient 1-9); for Long-term follow-up: Comment: s.c. 100 mg long-term regimen, observation 24-397 days
Source text: The effect of anakinra in the treatment of CPPS was studied in a clinical study. Inclusion criteria were CPPS mainly with the Bladder Pain phenotype, but also the with the Urethral and Prostate Pain phenotype. Exclusion criteria were uncontrolled diabetes mellitus, treatment for malignant disease within the preceding 10 years, pregnancy and age <18 years and ongoing infectious diseases, including urinary tract infections, and neutropenia (<1.5×10^9/L). Patients gave informed consent for the use of unidentified personal clinical data for research purposes. Included patients were examined using clinical standard methods to rule out any ongoing disease. Blood and serum for hemoglobulin, liver and kidney function tests and White Blood Cell (WBC) counts were analysed. Urine was obtained for dip stick test (leukocytesteras for WBC estimation, the nitur test for ruling out bacteriuria), standard urinary Interleukins (IL6, IL8 and IL1b) and for urine culture. Cystoscopy and CT urography were performed in all patients. Blood and serum analysis and cystoscopy were repeated approximately two weeks after the start of treatment, and after approximately three months. Nine patients were recruited (Table 2).
After inclusion, patients were treated with anakinra 100 mg by self-administrated subcutaneous injection, repeated once daily as a maximum, or (if relief of symptoms and pain) on demand when symptoms or pain recurred. Regularly symptom scoring on frequency, supra-pubic/bladder pain/prostate/urethral pain and Quality of Life was performed to evaluate treatment effect.

NK1R and its ligand SP = conditions: mice; cited from earlier work
murine cystitis model = conditions: mice, cited from earlier work
Substance P [4] = assay: Urine Substance P (SP) concentration, patients with chronic cystitis; assay type: in vivo, human
Experimental: Samples: Blood and urine samples for investigation of inflammatory processes as well as genetic and proteomic analyses.
For evaluation of the levels of systemic and local inflammatory processes, analyses of CRP, neutrophil count and Interleukins are performed in serum and urine.
To be able to define a treatment group where anakinra might serve as an effective therapeutic option, we searched for urine biomarkers. In addition to patient urine samples, samples were collected from healthy controls to compare urine concentrations of IL-1β and Substance P (SP). […] In contrast, SP concentrations was increased in patients during maximum symptoms (209 vs 75 pg/ml, P=0.003), indicating a biomarker for bladder inflammation (FIG. 2).

Substance P [5] = assay: BPS trial: urine Substance P / neuropeptide levels; assay type: in vivo, human; conditions: for urine SP / neuropeptide levels, words: in vivo
Source text: as §1

[6] = post treatment, individual patients
[7] = pre treatment baseline, individual patients

anakinra: interleukin-1 receptor antagonist (r-metHuIL-1ra) produced in Escherichia coli; recombinant, slightly modified version of the human interleukin-1 receptor antagonist protein
patients with dramatic clinical improvement ([1]; daily 100 mg for seven days, ten BPS patients): 9/10 | lasting therapeutic effects ([1]; human, in vivo): 3 days | quality of life, words ([1]; human, in vivo): increased quality of life | side effects ([1]; human, in vivo): Two patients reported local irritation at the injection site | symptom score (pain and frequency), words ([1]; human, in vivo): reduction in symptom score | quality of life, words ([1]; human, in vivo, listed as Kineret): marked increase in quality of life | symptom relief at the onset of treatment, median ([1]; median): 2 h | patients with complete, or close to complete clinical response ([1]; of ten patients): Nine of the patients | relief of symptoms after the first injection ([1]; one patient with very severe BPS/ICS): 1 to 2 h | duration of symptom relief ([1]; range over patients): 0.5 to 8 days | time to symptom relief after the first dose ([1]; range over patients): 1 to 6 h | patients in whom treatment was proven effective (decrease in symptom scoring) ([2]; in vivo): 60% | Symptom Score Decrease at 1 week of treatment (number of patients) ([2]; of 15 patients recruited): 9 | Symptom Score No Decrease at 1 week of treatment (number of patients) ([2]; of 15 patients recruited): 6 | side effects ([3]; 100 mg s.c.): sparse and mild; also recorded: two cases of skin reaction at the place of injection; also recorded: one case of headache post injection; also recorded: without side effects; also recorded: minor headache | Side effect ([3]; 100 mg s.c., individual patients): local s.c. irritation; also recorded: not reported; also recorded: headache post inj | clinical response in the detailed patient description, words ([3]; 100 mg s.c.): subjectively significantly improved with a clear reduction in frequency and local pain from the bladder; also recorded: pain relief followed immediately; also recorded: constant relief of symptoms; also recorded: the urge, frequency and bladder pain dramatically decreased; also recorded: the urgency and frequency was dramatically reduced; also recorded: relief of fever attacks and arthralgia, as well as reduced urgency and frequency | clinical response in the detailed patient description, words ([3]; 100 mg s.c., listed as Anakinra): significant symptom and pain relief; also recorded: constant relief of symptoms | maximum effect generally lasted ([3]; after one s.c. inj. of 100 mg): 2 to 3 days | maximum effect on symptoms seen within ([3]; after one s.c. inj. of 100 mg, all nine patients): 1 to 24 h | symptoms as measured by symptom scoring, words ([3]; all patients): dramatically reduced symptoms | treatment effect during long-term follow-up, words ([3]; all patients): consistent | experienced quality of life (QoL), words ([3]; human, in vivo): increased in all patients; also recorded: highly increased, or increased | number of micturitions at night-time, words ([3]; human, in vivo): generally reduced | number of micturitions during daytime, words ([3]; human, in vivo): reduced in all patients | pain experienced by the patients, words ([3]; human, in vivo): decreased dramatically | patients completely free from pain ([3]; of nine patients): five out of the nine | Frequency (nycturia) post (number of micturations during nighttime) [3, 6]: (0) and (1) (6×) and (2) | Frequency post (number of micturations during daytime) [3, 6]: 5 (2×) and 4 (2×) and 6 (3×) and 8 | Frequency (nycturia) pre (number of micturations during nighttime) [3, 7]: (1-2) and (5) (3×) and (3) (2×) and (4) and (1) | Frequency pre (number of micturations during daytime) [3, 7]: 12 (4×) and 11 and 8 (2×) and 7 | Long-term follow-up: Comment ([3]; individual patients, 100 mg s.c. dosing 1 per 2-4 weeks): increased QoL,; also recorded: symptom free | Long-term follow-up: Comment ([3]; individual patients, 100 mg s.c. dosing 1 per 2-3 days): highly increased QoL | Long-term follow-up: Comment ([3]; individual patients, 100 mg s.c. dosing 1 per day): highly increased QoL,; also recorded: planned cystectomy postponed | Long-term follow-up: Comment ([3]; individual patients, 100 mg s.c. dosing 1 per week): highly increased QoL; also recorded: highly increased QoL,; also recorded: highly increased QoL; | QoL reduction post ([3]; score 0-6, 0 not reduced QoL, post treatment, individual patients): 2 (2×) and 1 (2×) and 0 (5×) | Pain post ([3]; score 0-6, 0 symptom-free, post treatment, individual patients): 2 (2×) and 1 (2×) and 0 (5×) | Pain pre ([3]; score 0-6, 6 severe pain, pre treatment baseline, individual patients): 5 (3×) and 5-6 and 6 and 4 (4×) | QoL reduction pre ([3]; score 0-6, 6 severely reduced QoL, pre treatment baseline, individual patients): 5 (3×) and 5-6 and 6 (2×) and 4 (3×) | expression of NK1R and SP in the bladder mucosa, words (NK1R and its ligand SP): reduced the expression of the pain receptor NK1R and its ligand SP | bacterial clearance, words (murine cystitis model): accelerate bacterial clearance | bladder inflammation, words (murine cystitis model): dramatically reduce bladder inflammation | bacterial clearance, words (murine cystitis model; listed as Kineret): increased bacterial clearance | bladder inflammation, words (murine cystitis model; listed as Kineret): dramatically reduced bladder inflammation | urine SP levels after Anakinra treatment (Substance P [4]; FIG. 3): reduced | urine SP concentration at time of minimum symptom, after treatment (Substance P [4]; paired samples, P=0.02): 136 pg/mL | urine SP concentration at time of maximum symptom (Substance P [4]; paired samples, baseline of the comparison, P=0.02): 243 pg/mL | patients with reduced SP levels (Substance P [5]; first treatment round): 9/10 | urine SP / neuropeptide levels, words (Substance P [5]): markedly decreased | urine SP / neuropeptide levels, words (Substance P [5]; listed as Kineret): rapid reduction
